Activity calls are given as the source filed them. The rule behind the calls is not given here.

Format in all cases: cell-based
Assay [1] addresses T1, Peroxisome proliferator-activated receptor gamma (Mus musculus) (UniProt P37238).
T1 sequence (whole entry): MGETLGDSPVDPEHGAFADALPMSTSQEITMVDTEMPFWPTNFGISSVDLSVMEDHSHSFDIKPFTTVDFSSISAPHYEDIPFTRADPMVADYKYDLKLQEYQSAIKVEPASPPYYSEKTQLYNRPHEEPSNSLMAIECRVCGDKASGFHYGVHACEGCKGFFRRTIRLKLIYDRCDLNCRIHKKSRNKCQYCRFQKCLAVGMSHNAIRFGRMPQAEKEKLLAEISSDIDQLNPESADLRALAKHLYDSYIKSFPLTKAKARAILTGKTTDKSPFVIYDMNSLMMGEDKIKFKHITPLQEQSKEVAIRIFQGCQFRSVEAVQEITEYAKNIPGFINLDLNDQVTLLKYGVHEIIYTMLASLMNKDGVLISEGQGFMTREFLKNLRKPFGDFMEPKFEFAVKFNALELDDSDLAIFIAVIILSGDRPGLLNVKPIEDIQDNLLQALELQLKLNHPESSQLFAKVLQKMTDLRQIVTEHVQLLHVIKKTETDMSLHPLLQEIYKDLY
Put plainly: Transactivation of mouse recombinant PPARgamma expressed in mouse NIH3T3 cells by PPRE activation based dual luciferase reporter gene assay relative to control.

Assay [2] deals with T2, Peroxisome proliferator-activated receptor alpha (Mus musculus) (UniProt P23204).
T2 sequence (whole entry): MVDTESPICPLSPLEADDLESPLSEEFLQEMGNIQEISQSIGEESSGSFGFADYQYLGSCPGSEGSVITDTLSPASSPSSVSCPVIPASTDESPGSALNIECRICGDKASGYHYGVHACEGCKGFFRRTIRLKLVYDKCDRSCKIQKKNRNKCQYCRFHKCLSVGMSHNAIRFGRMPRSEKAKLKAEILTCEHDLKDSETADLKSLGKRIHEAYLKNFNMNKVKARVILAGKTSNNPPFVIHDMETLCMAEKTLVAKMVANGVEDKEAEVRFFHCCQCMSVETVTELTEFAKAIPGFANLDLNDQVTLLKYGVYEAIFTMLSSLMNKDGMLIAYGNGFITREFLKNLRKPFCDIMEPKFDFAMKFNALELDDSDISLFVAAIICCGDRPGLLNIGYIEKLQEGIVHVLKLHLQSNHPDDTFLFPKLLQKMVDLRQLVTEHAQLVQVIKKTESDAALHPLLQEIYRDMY
Put plainly: Transactivation of mouse recombinant PPARalpha expressed in mouse NIH3T3 cells at 5 uM by PPRE activation based dual luciferase reporter gene assay relative to control.

Assay [3] deals with T3, Peroxisome proliferator-activated receptor delta (Mus musculus) (UniProt P35396).
T3 sequence (whole entry): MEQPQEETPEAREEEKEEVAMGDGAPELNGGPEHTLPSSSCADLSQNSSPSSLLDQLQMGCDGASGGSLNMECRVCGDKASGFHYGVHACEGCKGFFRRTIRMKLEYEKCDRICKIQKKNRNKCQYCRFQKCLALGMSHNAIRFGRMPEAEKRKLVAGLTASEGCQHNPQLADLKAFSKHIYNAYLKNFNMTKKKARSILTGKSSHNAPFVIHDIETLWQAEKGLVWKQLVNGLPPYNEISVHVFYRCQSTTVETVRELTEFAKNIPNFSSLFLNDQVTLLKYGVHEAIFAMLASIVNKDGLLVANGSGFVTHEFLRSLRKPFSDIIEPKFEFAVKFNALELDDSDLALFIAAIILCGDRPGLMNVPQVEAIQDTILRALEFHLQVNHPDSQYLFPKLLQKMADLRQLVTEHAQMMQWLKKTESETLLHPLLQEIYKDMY
Nature of the assay: Transactivation of mouse recombinant PPARbeta expressed in mouse NIH3T3 cells by PPRE activation based dual luciferase reporter gene assay relative to control.

Assay [4] has as its target T2, Peroxisome proliferator-activated receptor alpha (Mus musculus). Nature of the assay: Transactivation of mouse recombinant PPARalpha expressed in mouse NIH3T3 cells at 0.1 uM to 10 uM by PPRE activation based dual luciferase reporter gene assay relative to control. A general note: In a reporter assay the amount or activity of a reporter protein is the signal.

Consider `CCCCCCCCCCCCCC[C@H](O)[C@H](O)[C@H](CO)NC(=O)CCCCCCCCCCCCC`, for which the outcome in assay [1] and in assay [2] was Active. Besides, the Activity result in assay [3] was “Dose-dependent effect”.
As for `CCCCCCCCCCCCCC[C@@H](O)[C@@H](O)[C@@H](CO)NC(=O)CCCCCCCCCCCCC`, the result in assay [1] and in assay [2] was Active. Besides, the Activity entry in assay [3] was “Dose-dependent effect”.
Regarding `CCCCCCCCCCCCCC[C@@H](O)[C@H](O)[C@H](CO)NC(=O)CCCCCCCCCCCCC`, the result in assay [1] and in assay [2] was Active. The Activity result in assay [3] is “Dose-dependent effect”.
For `CCCCCCCCCCCCCC[C@H](O)[C@@H](O)[C@H](CO)NC(=O)[C@H](Cc1ccccc1)NC(=O)OC(C)(C)C`, the result in assay [1], in assay [2] and in assay [4] was Active. Also, the Activity result in assay [3] is “Dose-dependent effect”.
In the case of `CCCCCCCCCCCCCC[C@H](O)[C@H](O)[C@@H](CO)NC(=O)[C@H](Cc1ccccc1)NC(=O)OC(C)(C)C`, the result in assay [1], in assay [2] and in assay [4] was Active. Further, the Activity result in assay [3] is “Dose-dependent effect”.
`CCCCCCCCCCCCCC[C@@H](O)[C@@H](O)[C@@H](CO)NC(=O)CBr`: in assay [1], the result was Active.
As for `CCCCCCCCCCCCCC[C@@H](O)[C@H](O)[C@@H](CO)NC(=O)[C@H](Cc1ccccc1)NC(=O)OC(C)(C)C`, the result in assay [1], in assay [2] and in assay [4] was Active. For the same compound, in assay [3], the Activity result was “Dose-dependent effect”.
Consider `CC1(COc2ccc(CC3SC(=O)NC3=O)cc2)CCCCC1` (centres undefined), for which the outcome in assay [1] was Active.
For `Cc1cccc(Nc2cc(Cl)nc(SCC(=O)O)n2)c1C`, the outcome in assay [4] was Active.

(Values after ChEMBL document CHEMBL1153926, “Evaluation of synthetic sphingolipid analogs as ligands for peroxisome proliferator-activated receptors” (Bioorg Med Chem Lett, 2009).)
